# From patent US7138361B2, “Herbicidal heterocycles” (E. I. du Pont de Nemours and Company, priority 2000, dated 2006)
# Key:
# Assay in all cases: Test C preemergence
# Format in all cases: in vivo
# Nightshade [1] = system: Nightshade
# Sunflower = conditions: Rate 125 g/ha; scale 0 to 100, 0 no effect, 100 complete control
# [2] = system: Surinam grass (Brachiaria decumbens)
# In short: (§1)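 Herbicidal effect is a visual 0–100 score (100 = complete control) assigned versus untreated plants, 12 to 14 days after spraying in the greenhouse. Test compounds were applied in a non-phytotoxic, surfactant-containing solvent.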
# [3] = system: bermudagrass (Cynodon dactylon)
# In short: as §1
# [4] = system: cocklebur (Xanthium strumarium)
# In short: as §1
# [5] = system: common ragweed (Ambrosia elatior)
# In short: as §1
# corn (Zea mays) = system: corn (Zea mays)
# In short: as §1
# [6] = system: crabgrass (Digitaria sanguinalis)
# In short: as §1
# [7] = system: giant foxtail (Setaria faberii)
# In short: as §1
# [8] = system: goosegrass (Eleusine indica)
# In short: as §1
# [9] = system: johnsongrass (Sorghum halepense)
# In short: as §1
# kochia (Kochia scoparia) = system: kochia (Kochia scoparia)
# In short: as §1
# [10] = system: lambsquarters (Chenopodium album)
# In short: as §1
# [11] = system: morningglory (Ipomoea hederacea)
# In short: as §1
# [12] = system: pigweed (Amaranthus retroflexus)
# In short: as §1
# soybean (Glycine max) = system: soybean (Glycine max)
# In short: as §1
# [13] = system: velvetleaf (Abutilon theophrasti)
# In short: as §1
# [14] = system: woolly cupgrass (Eriochloa villosa)
# In short: as §1
# [15] = system: yellow nutsedge (Cyperus esculentus)
# In short: as §1
# Nightshade [16] = conditions: Rate 500 g/ha, visual evaluation after 12 to 14 days
# [17] = Rate 125 g/ha, scale 0 to 100, 0 no effect, 100 complete control
# [18] = preemergence, Rate 62 g/ha, scale 0 to 100
# [19] = preemergence, Rate 500 g/ha, visual evaluation after 12 to 14 days
# [20] = preemergence, Rate 250 g/ha, scale 0 to 100, 0 no effect, 100 complete control
structure (smiles),measurement,setting,value
CC(C)(C)c1ccn(C2CCN(c3cccc(I)c3)C2=O)n1 (stereo not shown) [Compound 88],"Plant response rating, Nightshade","Nightshade [1]; Rate 62 g/ha, scale 0 to 100",30
same,"Plant response rating, Nightshade",Nightshade [1]; [17],20
same,"Plant response rating, Nightshade","Nightshade [1]; Rate 250 g/ha, scale 0 to 100, 0 no effect, 100 complete control",80
same,"Plant response rating, Sunflower",Sunflower,40
same,"Plant response rating, Surinam grass",[2]; [17],30
same,"Plant response rating, Surinam grass",[2]; [18],40
same,"Plant response rating (0 to 100), Surinam grass",[2]; [19],100
same,"Plant response rating, Surinam grass",[2]; [20],70
same,"Plant response rating, Bermudagrass",[3]; [17],100
same,"Plant response rating, Bermudagrass",[3]; [18],100
same,"Plant response rating (0 to 100 where 0 is no effect and 100 is complete control), Bermudagrass",[3]; [19],100
same,"Plant response rating, Bermudagrass",[3]; [20],100
same,"Plant response rating, Cocklebur",[4]; [17],0
same,"Plant response rating, Cocklebur",[4]; [18],0
same,"Plant response rating (0 to 100), Cocklebur",[4]; [19],20
same,"Plant response rating, Cocklebur",[4]; [20],20
same,"Plant response rating, Ragweed, Common",[5]; [17],0
same,"Plant response rating, Ragweed, Common",[5]; [18],0
same,"Plant response rating (0 to 100), Ragweed, Common",[5]; [19],20
same,"Plant response rating, Ragweed, Common",[5]; [20],0
same,"Plant response rating, Corn",corn (Zea mays); [17],10
same,"Plant response rating, Corn",corn (Zea mays); [18],0
same,"Plant response rating (0 to 100), Corn",corn (Zea mays); [19],100
same,"Plant response rating, Corn",corn (Zea mays); [20],70
same,"Plant response rating, Crabgrass",[6]; [17],100
same,"Plant response rating, Crabgrass",[6]; [18],100
same,"Plant response rating (0 to 100), Crabgrass",[6]; [19],100
same,"Plant response rating, Crabgrass",[6]; [20],100
same,"Plant response rating, Foxtail, Giant",[7]; [17],100
same,"Plant response rating, Foxtail, Giant",[7]; [18],0
same,"Plant response rating (0 to 100), Foxtail, Giant",[7]; [19],100
same,"Plant response rating, Foxtail, Giant",[7]; [20],100
same,"Plant response rating, Goosegrass",[8]; [17],100
same,"Plant response rating, Goosegrass",[8]; [18],100
same,"Plant response rating (0 to 100), Goosegrass",[8]; [19],100
same,"Plant response rating, Goosegrass",[8]; [20],100
same,"Plant response rating, Johnsongrass",[9]; [17],10
same,"Plant response rating, Johnsongrass",[9]; [18],10
same,"Plant response rating (0 to 100), Johnsongrass",[9]; [19],100
same,"Plant response rating, Johnsongrass",[9]; [20],40
same,"Plant response rating, Kochia",kochia (Kochia scoparia); [17],90
same,"Plant response rating, Kochia",kochia (Kochia scoparia); [18],70
same,"Plant response rating (0 to 100), Kochia",kochia (Kochia scoparia); [19],100
same,"Plant response rating, Kochia",kochia (Kochia scoparia); [20],100
same,"Plant response rating, Lambsquarters",[10]; [17],100
same,"Plant response rating, Lambsquarters",[10]; [18],100
same,"Plant response rating (0 to 100), Lambsquarters",[10]; [19],100
same,"Plant response rating, Lambsquarters",[10]; [20],100
same,"Plant response rating, Morningglory",[11]; [17],10
same,"Plant response rating, Morningglory",[11]; [18],10
same,"Plant response rating (0 to 100), Morningglory",[11]; [19],30
same,"Plant response rating, Morningglory",[11]; [20],30
same,"Plant response rating, Pigweed",[12]; [17],10
same,"Plant response rating, Pigweed",[12]; [18],0
same,"Plant response rating (0 to 100), Pigweed",[12]; [19],100
same,"Plant response rating, Pigweed",[12]; [20],40
same,"Plant response rating, Soybean",soybean (Glycine max); [17],10
same,"Plant response rating, Soybean",soybean (Glycine max); [18],0
same,"Plant response rating (0 to 100), Soybean",soybean (Glycine max); [19],30
same,"Plant response rating, Soybean",soybean (Glycine max); [20],10
same,"Plant response rating, Velvetleaf",[13]; [17],10
same,"Plant response rating, Velvetleaf",[13]; [18],0
same,"Plant response rating (0 to 100), Velvetleaf",[13]; [19],20
same,"Plant response rating, Velvetleaf",[13]; [20],10
same,"Plant response rating, Cupgrass, Woolly",[14]; [17],90
same,"Plant response rating, Cupgrass, Woolly",[14]; [18],60
same,"Plant response rating (0 to 100), Cupgrass, Woolly",[14]; [19],100
same,"Plant response rating, Cupgrass, Woolly",[14]; [20],100
same,"Plant response rating, Nutsedge",[15]; [17],0
same,"Plant response rating, Nutsedge",[15]; [18],0
same,"Plant response rating (0 to 100), Nutsedge",[15]; [19],10
same,"Plant response rating, Nutsedge",[15]; [20],0
same,"Plant response rating (0 to 100), Nightshade",Nightshade [16],80
